This is an account of results in patent publication US20040052845A1, “Hydrogel-driven drug dosage form” (priority 2003, published 2004).

The nature of this data set: Aqueous solubility of the drug.

Structures can show the parent of a compound that is named as a salt.

Where the note is “at pH 4”, “4-[3-[4-(2-methylimidazol-1-yl) phenylthio] phenyl]-3,4,5,6-tetrahydro-2H-pyran-4-carboxamide hemifumarate [Drug 3]” had a solubility of 3.7 mgA/mL.
`CN[C@H]1CC[C@@H](c2ccc(Cl)c(Cl)c2)c2ccccc21` [Drug 2, sertraline HCl]: under “at pH 7”, the solubility is reported as 0.2 mg/mL.
